Laboratory results as given in patent publication US20260022098A1, “BULLEYACONITINE A DERIVATIVE WITH ANALGESIC ACTIVITY, AND PREPARATION METHOD AND APPLICATION THEREOF” (priority 2023, published 2026).
Like-named read-outs stand apart in the source and are kept apart here.

Experiments:
Kunming mice [1] = assay: Analgesic activity by acetic acid-induced writhing method (writhing inhibition rate, ED50); format: in vivo; conditions: Mus musculus, sc, read-out: Analgesia rate (%) ± SEM
Protocol: (§1) The experimental animals were Kunming mice (male:female=1:1), weighed 22+2 g, which were provided by Chengdu dossy experimental animals Co., ltd., China. The mice were kept in the animal room of the School of Life Science and Engineering, Southwest Jiaotong University, where the animal room was set at a temperature of 23±2° C., a humidity of […] and a photoperiod of 16:8 h (L:D). Before the experiment, the mice were freely fed for 2-3 days with water and feed to adapt to the new environment. Then, the mice were treated by water and food fasting for 12 h. 10 animals were allocated to each group to ensure that there are at least 6 sets of valid data in each group. The animal experiments were carried out in strict accordance with the national regulations on the management of experimental animals.
(§2) The compounds prepared in the examples provided herein (test sample set) and bulleyaconitine A (positive control set) were all dissolved with 0.1 mol/L HCl according to a molar ratio of 1:1, and then diluted with physiological saline to a concentration to be determined. Blank control was physiological saline containing 0.1 mol/L HCl. The animals in the control groups were subjected to the same treatment as those in experimental groups except that samples to be test were replaced with physiological saline.
(1) Determination of Analgesic Activity Through an Acetic Acid-Induced Writhing Method
10 mice were randomly selected, male:female=1:1, were placed in independent cages. Each mouse was injected subcutaneously with the sample solution mentioned above at a dose of 0.1 mL/10 g body weight. After 15 min, a 0.7% acetic acid solution was intraperitoneally injected. A number of writhing reactions in each mouse within 15 minutes was recorded. The group that the mice were injected with physiological saline subcutaneously was the blank group; the group that the mice were injected with the sample to be tested was the experimental group; and the group that the mice were injected with bulleyaconitine A was the positive group. The analgesic activity was represented by a percentage of the reduced number of writhing compared to the blank group (writhing inhibition rate), which were specifically as follows: writhing inhibition rate (analgesic activity)=(average number of writhing times in the blank group-average number of writhing times in the experimental group)/average number of writhing times in the blank group×100%.
Median Effective Dose (ED50) Determination
The sample to be tested was dissolved with 0.1 mol/L HCl according to the amount of the substance ratio of 1:1, and diluted with physiological saline according to the proportional series to obtain at least 5 groups with different dose concentrations. The writhing inhibition rate of each dose group was tested according to the acetic acid-induced writhing method mentioned above. The obtained dose-writhing inhibition data was entered into the statistical product and service solutions (SPSS) software (version 17.2), and the ED50 of the sample to be tested was calculated through the Probit regression method.

Kunming mice [2] = assay: Acute toxicity / median lethal dose (LD50) determination, subcutaneous injection; format: in vivo; parameters: key to Acute toxicity: if death occurred, (+) represented as positive; if no death occurred, (−) represented as negative; conditions: mice administered 20 mg/kg subcutaneously, presence of death within 24 h
Protocol: as §1, §2
(2) Median Lethal Dose (LD50) Determination
The sample to be tested was dissolved with 0.1 mol/L HCl according to the amount of the substance ratio of 1:1, and diluted with physiological saline according to the required concentration. 10 mice in each group were randomly selected, half of which were male and half of which were female, and were placed in independent cages. Each mouse was injected subcutaneously with different sample solutions to be tested according to a dose of 0.1 mL/10 g body weight. In the preliminary toxicity experiment, the measured concentration was 20 mg/kg, and then based on the survival rate of the experimental animals in the preliminary experiment, the sample to be tested was set to at least 5 groups with different concentration dose according to the proportional series. The survival rate of mice within 24 h was recorded. The obtained dose-survival rate data was input into the SPSS software (version 17.2), and the LD50 of the sample was calculated according to the Probit regression method.

| SMILES | inhibition in vivo at 0.05 mg/kg (Kunming mice [1]) | Acute toxicity (Kunming mice [2]) | inhibition in vivo at 0.05 mg/kg (Kunming mice [1]; dosing concentration 0.05 mg/kg, subcutaneous, acetic acid-induced writhing, mice) |
| --- | --- | --- | --- |
| CCO[C@]12C[C@H](OC)[C@@]3(OC(=O)c4ccccc4Br)CC(C1[C@H]3OC(=O)c1ccccc1Br)[C@]13C4[C@@H](OC)C2[C@H]1N(CC)C[C@]4(COC)CC[C@@H]3OC (stereo partly drawn) [Compound 67] | 17.8 ± 1.9% | − |  |
| CCO[C@]12C[C@H](OC)[C@@]3(OC(=O)c4ccccc4Cl)CC(C1[C@H]3OC(=O)c1ccccc1Cl)[C@]13C4[C@@H](OC)C2[C@H]1N(CC)C[C@]4(COC)CC[C@@H]3OC (stereo partly drawn) [Compound 68] | 24.6 ± 1.7% | − |  |
| CCO[C@]12C[C@H](OC)[C@@]3(OC(=O)c4cccc(Br)c4)CC(C1[C@H]3OC(=O)c1cccc(Br)c1)[C@]13C4[C@@H](OC)C2[C@H]1N(CC)C[C@]4(COC)CC[C@@H]3OC (stereo partly drawn) [Compound 70] | 5.83 ± 1.7% | − |  |
| CCO[C@]12C[C@H](OC)[C@@]3(OC(=O)c4cccc(Cl)c4)CC(C1[C@H]3OC(=O)c1cccc(Cl)c1)[C@]13C4[C@@H](OC)C2[C@H]1N(CC)C[C@]4(COC)CC[C@@H]3OC (stereo partly drawn) [Compound 71] | 4.11 ± 2% | − |  |
| CCO[C@]12C[C@H](OC)[C@@]3(OC(=O)c4cccc(F)c4)CC(C1[C@H]3OC(=O)c1cccc(F)c1)[C@]13C4[C@@H](OC)C2[C@H]1N(CC)C[C@]4(COC)CC[C@@H]3OC (stereo partly drawn) [Compound 72] | 24.7 ± 2% | − |  |
| CCO[C@]12C[C@H](OC)[C@@]3(OC(=O)c4ccc(Cl)cc4Cl)CC(C1[C@H]3OC(=O)c1ccc(Cl)cc1Cl)[C@]13C4[C@@H](OC)C2[C@H]1N(CC)C[C@]4(COC)CC[C@@H]3OC (stereo partly drawn) [Compound 73] | 33.5 ± 2.7% | − |  |
| CCO[C@]12C[C@H](OC)[C@@]3(OC(=O)c4cc(F)cc(F)c4)CC(C1[C@H]3OC(=O)c1cc(F)cc(F)c1)[C@]13C4[C@@H](OC)C2[C@H]1N(CC)C[C@]4(COC)CC[C@@H]3OC (stereo partly drawn) [Compound 74] | 23.9 ± 2.8% | − |  |
| CCO[C@]12C[C@H](OC)[C@@]3(OC(=O)c4ccccc4C)CC(C1[C@H]3OC(=O)c1ccccc1C)[C@]13C4[C@@H](OC)C2[C@H]1N(CC)C[C@]4(COC)CC[C@@H]3OC (stereo partly drawn) [Compound 75] | 10.8 ± 2.2% | − |  |
| CCO[C@]12C[C@H](OC)[C@@]3(OC(=O)c4cccc(OC)c4)CC(C1[C@H]3OC(=O)c1cccc(OC)c1)[C@]13C4[C@@H](OC)C2[C@H]1N(CC)C[C@]4(COC)CC[C@@H]3OC (stereo partly drawn) [Compound 76] | 0% | − |  |
| CCCC(=O)O[C@@H]1C2C3C[C@]1(OC(=O)CCC)[C@@H](OC)C[C@]2(OCC)C1[C@H](OC)C2[C@@]4(COC)CC[C@H](OC)[C@@]32[C@@H]1N(CC)C4 (stereo partly drawn) [Compound 77] | 34.2 ± 1.8% | − |  |
| CCCC(=O)O[C@]12CC3C([C@H]1OC(=O)c1ccc(OC)cc1)[C@](OCC)(C[C@@H]2OC)C1[C@H](OC)C2[C@@]4(COC)CC[C@H](OC)[C@@]32[C@@H]1N(CC)C4 (stereo partly drawn) [Compound 78] | 31.7 ± 1.4% | − |  |
| CCO[C@]12C[C@H](OC)[C@@]3(OC(=O)C(C)C)CC(C1[C@H]3OC(=O)C(C)C)[C@]13C4[C@@H](OC)C2[C@H]1N(CC)C[C@]4(COC)CC[C@@H]3OC (stereo partly drawn) [Compound 80] | 19.1 ± 2.1% | − |  |
| CCO[C@]12C[C@H](OC)[C@@]3(OC(=O)C(C)C)CC(C1[C@H]3OC(=O)c1ccc(OC)cc1)[C@]13C4[C@@H](OC)C2[C@H]1N(CC)C[C@]4(COC)CC[C@@H]3OC (stereo partly drawn) [Compound 81] | 28.8 ± 1.2% | − |  |
| CCN1C[C@]2(COC)CC[C@H](OC)[C@@]34C5C[C@]6(OC(=O)C(C)C)[C@@H](OC)C[C@@](OC(C)=O)(C5[C@H]6OC(=O)c5ccc(OC)cc5)C([C@H](OC)C23)[C@@H]14 (stereo partly drawn) [Compound 82] | 33.3 ± 1.5% | − |  |
| CCN1C[C@]2(COC)CC[C@H](OC)[C@@]34C5C[C@]6(OC(=O)c7ccc(Cl)cc7)[C@@H](OC)C[C@@](OC(C)=O)(C5[C@H]6OC(=O)c5ccc(OC)cc5)C([C@H](OC)C23)[C@@H]14 (stereo partly drawn) [Compound 84] | 27 ± 1.4% | − |  |
| C/C=C/C(=O)O[C@@H]1C2C3C[C@]1(OC(=O)/C=C/C)[C@@H](OC)C[C@]2(OCC)C1[C@H](OC)C2[C@@]4(COC)CC[C@H](OC)[C@@]32[C@@H]1N(CC)C4 (stereo partly drawn) [Compound 85] | 22.4 ± 3.3% | − |  |
| C/C=C/C(=O)O[C@]12CC3C([C@H]1OC(=O)c1ccc(OC)cc1)[C@](OCC)(C[C@@H]2OC)C1[C@H](OC)C2[C@@]4(COC)CC[C@H](OC)[C@@]32[C@@H]1N(CC)C4 (stereo partly drawn) [Compound 86] | 22.8 ± 1.8% | − |  |
| C/C=C/C(=O)O[C@]12CC3C([C@H]1OC(=O)c1ccc(OC)cc1)[C@](OC(C)=O)(C[C@@H]2OC)C1[C@H](OC)C2[C@@]4(COC)CC[C@H](OC)[C@@]32[C@@H]1N(CC)C4 (stereo partly drawn) [Compound 87] | 17.3 ± 3.1% | − |  |
| CCO[C@]12C[C@H](OC)[C@@]3(OC(=O)CC(C)(C)C)CC(C1[C@H]3OC(=O)c1ccc(OC)cc1)[C@@]13C4[C@@H]2[C@H](OC)C1[C@@](COC)(CC[C@@H]3OC)CN4CC (stereo partly drawn) [Compound 89] |  | − | 33.7 ± 2.4% |
| CCO[C@]12C[C@H](OC)[C@@]3(OC(=O)c4ccc(Br)cc4)CC(C1[C@H]3OC(=O)c1ccc(OC)cc1)[C@]13C4[C@@H](OC)C2[C@H]1N(CC)C[C@]4(COC)CC[C@@H]3OC (stereo partly drawn) [Compound 91] | 31.4 ± 1.5% | − |  |
| CCN1C[C@]2(COC)CC[C@H](OC)[C@@]34C5C[C@]6(OC(=O)c7ccc(Br)cc7)[C@@H](OC)C[C@@](OC(C)=O)(C5[C@H]6OC(=O)c5ccc(OC)cc5)C([C@H](OC)C23)[C@@H]14 (stereo partly drawn) [Compound 92] | 4.12 ± 1.7% | − |  |
| CCO[C@]12C[C@H](OC)[C@@]3(OC(=O)Cc4cccs4)CC(C1[C@H]3OC(=O)Cc1cccs1)[C@]13C4[C@@H](OC)C2[C@H]1N(CC)C[C@]4(COC)CC[C@@H]3OC (stereo partly drawn) [Compound 93] | 10.5 ± 2.3% | − |  |
| CCO[C@]12C[C@H](OC)[C@@]3(OC(=O)c4ccc(OC(F)(F)F)cc4)CC(C1[C@H]3OC(=O)c1ccc(OC(F)(F)F)cc1)[C@]13C4[C@@H](OC)C2[C@H]1N(CC)C[C@]4(COC)CC[C@@H]3OC (stereo partly drawn) [Compound 94] | 0% | − |  |
| CCO[C@]12C[C@H](OC)[C@@]3(OC(=O)c4cccc(C#N)c4)CC(C1[C@H]3OC(=O)c1cccc(C#N)c1)[C@]13C4[C@@H](OC)C2[C@H]1N(CC)C[C@]4(COC)CC[C@@H]3OC (stereo partly drawn) [Compound 95] | 23.8 ± 1.1% | − |  |
